The source of these data is ChEMBL document CHEMBL1147626, “Determination of the stable conformation of GABA(A)-benzodiazepine receptor bivalent ligands by low temperature NMR and X-ray analysis” (Bioorg Med Chem Lett, 2004).

The Ki is a measure of affinity in units of concentration, obtained from inhibition or displacement. Low values mean tighter binding, high ones weaker binding.

SMILES strings stand for the structures.

The target of this assay is T1, GABA-A receptor; alpha-3/beta-3/gamma-2 (Homo sapiens, UniProt P18507+P28472+P34903).
T1 sequence (P18507 whole entry): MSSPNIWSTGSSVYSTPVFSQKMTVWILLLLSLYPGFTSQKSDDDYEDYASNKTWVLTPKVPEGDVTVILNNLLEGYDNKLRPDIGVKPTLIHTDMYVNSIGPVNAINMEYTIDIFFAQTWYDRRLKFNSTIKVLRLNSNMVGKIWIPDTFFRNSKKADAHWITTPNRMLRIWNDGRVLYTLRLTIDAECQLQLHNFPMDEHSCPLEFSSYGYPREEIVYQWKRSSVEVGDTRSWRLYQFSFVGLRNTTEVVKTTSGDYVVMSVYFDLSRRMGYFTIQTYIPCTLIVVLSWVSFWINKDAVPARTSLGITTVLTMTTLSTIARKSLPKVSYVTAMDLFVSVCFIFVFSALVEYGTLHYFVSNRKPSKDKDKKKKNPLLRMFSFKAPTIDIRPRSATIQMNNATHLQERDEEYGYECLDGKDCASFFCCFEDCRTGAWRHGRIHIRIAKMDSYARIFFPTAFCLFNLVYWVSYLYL
T1 sequence (P28472 whole entry): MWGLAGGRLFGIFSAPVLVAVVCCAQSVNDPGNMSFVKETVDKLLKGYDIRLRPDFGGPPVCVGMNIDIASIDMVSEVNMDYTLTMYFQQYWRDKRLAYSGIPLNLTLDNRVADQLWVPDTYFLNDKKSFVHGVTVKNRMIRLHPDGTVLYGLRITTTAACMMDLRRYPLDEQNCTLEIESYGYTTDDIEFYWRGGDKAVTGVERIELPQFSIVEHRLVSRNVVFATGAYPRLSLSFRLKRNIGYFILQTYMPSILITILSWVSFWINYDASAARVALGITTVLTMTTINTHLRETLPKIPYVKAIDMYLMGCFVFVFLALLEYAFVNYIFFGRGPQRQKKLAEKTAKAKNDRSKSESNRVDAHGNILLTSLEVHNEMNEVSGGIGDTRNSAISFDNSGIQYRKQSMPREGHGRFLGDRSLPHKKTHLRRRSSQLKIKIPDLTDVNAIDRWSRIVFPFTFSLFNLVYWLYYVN
T1 sequence (P34903 whole entry): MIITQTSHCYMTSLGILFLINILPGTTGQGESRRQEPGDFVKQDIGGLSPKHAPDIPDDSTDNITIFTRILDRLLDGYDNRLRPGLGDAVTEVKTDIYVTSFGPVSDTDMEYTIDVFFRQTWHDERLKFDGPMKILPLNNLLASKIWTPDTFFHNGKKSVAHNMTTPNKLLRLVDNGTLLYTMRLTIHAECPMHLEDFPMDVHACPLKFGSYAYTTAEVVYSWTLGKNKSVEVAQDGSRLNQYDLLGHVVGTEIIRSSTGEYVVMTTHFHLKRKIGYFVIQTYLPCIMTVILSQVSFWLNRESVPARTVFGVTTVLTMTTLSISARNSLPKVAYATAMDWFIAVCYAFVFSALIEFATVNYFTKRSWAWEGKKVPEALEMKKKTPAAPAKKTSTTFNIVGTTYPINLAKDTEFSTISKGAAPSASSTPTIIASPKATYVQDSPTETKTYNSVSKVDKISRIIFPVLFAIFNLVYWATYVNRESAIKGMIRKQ
Kind of assay: In vitro inhibition of [3H]-Ro- 15-1788 binding to human GABA-A receptor alpha-3-beta-3-gamma-2 subunits expressed in L(tk-)cells. Format: cell-based.

In the case of `C#Cc1ccc2c(c1)C(=O)N(C)Cc1c(C(=O)OCCCOC(=O)c3ncn4c3CN(C)C(=O)c3cc(C#C)ccc3-4)ncn1-2`, the Ki is 858 nM.
